Test results from the supplement of paper PMC11208160.

Assay: recombinant UMI read abundance after kanamycin selection (control-corrected) (log10(CPM+1)); higher = more efficient recombination; extreme values may be limits of the assay; sequences stand for … in AGTGCAGAGAAAATCGGCCAGTTTTCTCTGCCTGCAGTCCGCATGCCGTGGGACCCCTTGGGTTCTAACCTGTTGCCTAGATTTATGCAGCGGACTGCCTTTCTCCCAAAGTGATAAACCGG…AGGTTGGTTTCACT; site = the 11-nt donor
In short: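 Sequenced counts of recombinant UMIs were turned into CPM, averaged across replicates and scaled with control-derived factors. The reported figure is log10(CPM+1). Those UMIs, each 12 nt long, tagged donor and donor-binding-loop pairs on a plasmid with a promoterless kanamycin gene, screened as a pool in Escherichia coli with IPTG (0.07 mM) plus kanamycin or without selection.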
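Further: IS621 bridge recombinase in Escherichia coli cells against a fixed T5 target plasmid.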

Row | Sequence | recombinant UMI read abundance (log10)
1 | TATTTGGCATGGACCGGTTTTCCCGGTAATCCGTATTTGTG (site TATTGGGCTCA) | 0.00686
2 | TATTTGGCATGGACCGGTTTTCCCGGTAATCCGTATTTGTG (site TATTTAGCTCA) | 0.0189
3 | TATTTGGCATGGACCGGTTTTCCCGGTAATCCGTATTTGTG (site TATTTCGCTCA) | 0.00607
4 | TATTTGGCATGGACCGGTTTTCCCGGTAATCCGTATTTGTG (site TATTTGACTCA) | 0.0103
5 | TATTTGGCATGGACCGGTTTTCCCGGTAATCCGTATTTGTG (site TATTTGCCTCA) | 0.00864
6 | TATTTGGCATGGACCGGTTTTCCCGGTAATCCGTATTTGTG (site TATTTGGCTAA) | 0.0123
7 | TATTTGGCATGGACCGGTTTTCCCGGTAATCCGTATTTGTG (site TATTTGGCTCA) | 0.0246
8 | TATTTGGCATGGACCGGTTTTCCCGGTAATCCGTATTTGTG (site TATTTGGCTCC) | 0.0133
9 | TATTTGGCATGGACCGGTTTTCCCGGTAATCCGTATTTGTG (site TATTTGGCTCG) | 0.00904
10 | TATTTGGCATGGACCGGTTTTCCCGGTAATCCGTATTTGTG (site TATTTGGCTCT) | 0.0103
11 | TATTTGGCATGGACCGGTTTTCCCGGTAATCCGTATTTGTG (site TATTTGGCTGA) | 0
12 | TATTTGGCATGGACCGGTTTTCCCGGTAATCCGTATTTGTG (site TATTTGGCTTA) | 0.0236
13 | TATTTGGCATGGACCGGTTTTCCCGGTAATCCGTATTTGTG (site TATTTGTCTCA) | 0.0606
14 | TATTTGGCATGGACCGGTTTTCCCGGTAATCCGTATTTGTG (site TATTTTGCTCA) | 0.0154
15 | TATTTGGCATGGACCGGTTTTCCCGGTAATCCGTATTTGTG (site TCTTTGGCTCA) | 0.00921
16 | TATTTGGCATGGACCGGTTTTCCCGGTAATCCGTATTTGTG (site TGTTTGGCTCA) | 0.00811
17 | TATTTGGCATGGACCGGTTTTCCCGGTAATCCGTATTTGTG (site TTTTTGGCTCA) | 0.0282
18 | TCAAAGACATGGACCGGTTTTCCCGGTAATCCGTATTTGCG (site TCAAAGACTCG) | 1.9
19 | TCAAAGACATGGACCGGTTTTCCCGGTAATCCGTATTTGCG (site TCACAGACTCG) | 0.546
20 | TCAAAGACATGGACCGGTTTTCCCGGTAATCCGTATTTGCG (site TCAGAGACTCG) | 0.87
21 | TCAAAGACATGGACCGGTTTTCCCGGTAATCCGTATTTGCG (site TCATAGACTCG) | 0.773
22 | TCAACCGCATGGACCGGTTTTCCCGGTAATCCGTATTTGCG (site TCAACCGCTCG) | 0
23 | TCAACCGCATGGACCGGTTTTCCCGGTAATCCGTATTTGCG (site TCCACCGCTCG) | 0
24 | TCAACCGCATGGACCGGTTTTCCCGGTAATCCGTATTTGCG (site TCGACCGCTCG) | 0.00292
25 | TCAACCGCATGGACCGGTTTTCCCGGTAATCCGTATTTGCG (site TCTACCGCTCG) | 0

Row | Sequence | recombinant UMI read abundance (log10)
26 | TCAACGGCATGGACCGGTTTTCCCGGTAATCCGTATTTGCC (site TCAACGGCTGG) | 0.143
27 | TCAAGCACATGGACCGGTTTTCCCGGTAATCCGTATTTGAT (site TCAAGCACTAT) | 1.94
28 | TCAAGTCCATGGACCGGTTTTCCCGGTAATCCGTATTTGTA (site TAAAGTCCTTA) | 0.314
29 | TCAAGTCCATGGACCGGTTTTCCCGGTAATCCGTATTTGTA (site TCAAGTCCTTA) | 1.01
30 | TCAAGTCCATGGACCGGTTTTCCCGGTAATCCGTATTTGTA (site TGAAGTCCTTA) | 0.226
31 | TCAAGTCCATGGACCGGTTTTCCCGGTAATCCGTATTTGTA (site TTAAGTCCTTA) | 0.0663
32 | TCAATGACATGGACCGGTTTTCCCGGTAATCCGTATTTGGT (site TCAATGACTAC) | 0.953
33 | TCACACCCATGGACCGGTTTTCCCGGTAATCCGTATTTGCC (site TCACACCCTGG) | 0.92
34 | TCACAGACATGGACCGGTTTTCCCGGTAATCCGTATTTGCG (site TCAAAGACTCG) | 0.308
35 | TCACAGACATGGACCGGTTTTCCCGGTAATCCGTATTTGCG (site TCACAGACTCG) | 2.16
36 | TCACAGACATGGACCGGTTTTCCCGGTAATCCGTATTTGCG (site TCAGAGACTCG) | 0.267
37 | TCACAGACATGGACCGGTTTTCCCGGTAATCCGTATTTGCG (site TCATAGACTCG) | 0.29
38 | TCACATCCATGGACCGGTTTTCCCGGTAATCCGTATTTGAC (site ACACATCCTGT) | 0
39 | TCACATCCATGGACCGGTTTTCCCGGTAATCCGTATTTGAC (site CCACATCCTGT) | 0
40 | TCACATCCATGGACCGGTTTTCCCGGTAATCCGTATTTGAC (site GCACATCCTGT) | 0
41 | TCACATCCATGGACCGGTTTTCCCGGTAATCCGTATTTGAC (site TCACATCCTGT) | 0
42 | TCACCCGCATGGACCGGTTTTCCCGGTAATCCGTATTTGGT (site TCACCCGCTAC) | 0.206
43 | TCACCTTCATGGACCGGTTTTCCCGGTAATCCGTATTTGGT (site TCACCTTCTAC) | 0.0163
44 | TCACGAACATGGACCGGTTTTCCCGGTAATCCGTATTTGTC (site ACACGAACTGA) | 0
45 | TCACGAACATGGACCGGTTTTCCCGGTAATCCGTATTTGTC (site CCACGAACTGA) | 0.736
46 | TCACGAACATGGACCGGTTTTCCCGGTAATCCGTATTTGTC (site GCACGAACTGA) | 0
47 | TCACGAACATGGACCGGTTTTCCCGGTAATCCGTATTTGTC (site TCACGAACTGA) | 0
48 | TCACGAGCATGGACCGGTTTTCCCGGTAATCCGTATTTGAA (site TCACGAGCTTT) | 1.23
49 | TCACGCACATGGACCGGTTTTCCCGGTAATCCGTATTTGAC (site TCACGCACTGT) | 0.943
50 | TCACGCGCATGGACCGGTTTTCCCGGTAATCCGTATTTGCT (site TCACGCGCTAG) | 1.67

Row | Sequence | recombinant UMI read abundance (log10)
51 | TCACGGACATGGACCGGTTTTCCCGGTAATCCGTATTTGCT (site TCACGGACTAG) | 1.43
52 | TCAGAAACATGGACCGGTTTTCCCGGTAATCCGTATTTGCG (site TCAGAAACTCG) | 1.86
53 | TCAGAAACATGGACCGGTTTTCCCGGTAATCCGTATTTGCG (site TCAGACACTCG) | 0.0112
54 | TCAGAAACATGGACCGGTTTTCCCGGTAATCCGTATTTGCG (site TCAGAGACTCG) | 2.47
55 | TCAGAAACATGGACCGGTTTTCCCGGTAATCCGTATTTGCG (site TCAGATACTCG) | 0.202
56 | TCAGAAACATGGACCGGTTTTCCCGGTAATCCGTATTTGTA (site TCAGAAACTTA) | 2.07
57 | TCAGACACATGGACCGGTTTTCCCGGTAATCCGTATTTGCG (site TCAGAAACTCG) | 0
58 | TCAGACACATGGACCGGTTTTCCCGGTAATCCGTATTTGCG (site TCAGACACTCG) | 1.77
59 | TCAGACACATGGACCGGTTTTCCCGGTAATCCGTATTTGCG (site TCAGAGACTCG) | 0.0043
60 | TCAGACACATGGACCGGTTTTCCCGGTAATCCGTATTTGCG (site TCAGATACTCG) | 0.946
61 | TCAGAGACATGGACCGGTTTTCCCGGTAATCCGTATTTGAA (site TCAGAGACTTT) | 1.74
62 | TCAGAGACATGGACCGGTTTTCCCGGTAATCCGTATTTGCA (site TCAGAGACTAG) | 0.204
63 | TCAGAGACATGGACCGGTTTTCCCGGTAATCCGTATTTGCA (site TCAGAGACTCG) | 1.34
64 | TCAGAGACATGGACCGGTTTTCCCGGTAATCCGTATTTGCA (site TCAGAGACTGG) | 0.635
65 | TCAGAGACATGGACCGGTTTTCCCGGTAATCCGTATTTGCA (site TCAGAGACTTG) | 2.49
66 | TCAGAGACATGGACCGGTTTTCCCGGTAATCCGTATTTGCC (site TCAGAGACTAG) | 0.85
67 | TCAGAGACATGGACCGGTTTTCCCGGTAATCCGTATTTGCC (site TCAGAGACTCG) | 0.683
68 | TCAGAGACATGGACCGGTTTTCCCGGTAATCCGTATTTGCC (site TCAGAGACTGG) | 1.58
69 | TCAGAGACATGGACCGGTTTTCCCGGTAATCCGTATTTGCC (site TCAGAGACTTG) | 1.62
70 | TCAGAGACATGGACCGGTTTTCCCGGTAATCCGTATTTGCT (site TCAGAGACTAG) | 2.38
71 | TCAGAGACATGGACCGGTTTTCCCGGTAATCCGTATTTGCT (site TCAGAGACTCG) | 0.601
72 | TCAGAGACATGGACCGGTTTTCCCGGTAATCCGTATTTGCT (site TCAGAGACTGG) | 2.21
73 | TCAGAGACATGGACCGGTTTTCCCGGTAATCCGTATTTGCT (site TCAGAGACTTG) | 0.868
74 | TCAGAGACATGGACCGGTTTTCCCGGTAATCCGTATTTGGG (site TCAGAGACTCA) | 0.0103
75 | TCAGAGACATGGACCGGTTTTCCCGGTAATCCGTATTTGGG (site TCAGAGACTCC) | 0
